Experiment [1] concerns T. cruzi Tulahuen strain C2C4. The experiment can be described thus: In vitro assay for Trypanosoma cruzi in L-6 cells (β-galactosidase/CPRG). The format is cell-based. The following applies: highest concentration tested 90 μg/mL; for IC50: Trypanosoma cruzi, L6, Tulahuen C2C4 in L-6 cells, 96 h, means of two determinations ± deviation. The procedure: Rat skeletal myoblasts (L-6 cells) were seeded in 96 well microtiter plates (2000 cells/well) in 100 μL RPMI 1640 medium with 10% FBS and 2 mM L-glutamine for 24 h. After that, the medium was removed and replaced by 100 μL per well containing 5000 trypomastigote forms of T. cruzi Tulahuen strain C2C4, containing the β-galactosidase (Lac Z) gene. The medium was removed from the wells after 48 h, and replaced with 100 μL fresh medium with or without a serial drug dilution of seven 3-fold dilution steps covering a range from 90 to 0.123 μg/mL. After 96 h of incubation, the plates were inspected under an inverted microscope to assure growth of the controls and sterility, after which the substrate CPRG/Nonidet ([…]) was added to all wells. A color reaction developed within 2–6 h and could be read photometrically at 540 nm. Data were transferred into the graphic program Softmax Pro (Molecular Devices Cooperation, Sunnyvale, CA, USA) and the IC50 values were calculated from the sigmoidal dose response curves. Benznidazole was the reference drug.

For a further experiment, the system named is T. brucei brucei STIB795. The experiment can be described thus: In vivo trypanocidal activity, T. brucei brucei STIB795 mouse model. On the set-up: species or system Trypanosoma brucei brucei. The following applies: for in vivo trypanocidal activity in mice (in words): 100 mg/kg i.p.; for Cured/Infected / Mean Survival: 100 mg/kg × 4 days i.p., NMRI mice; for Mean Survival: untreated control 5.25 days. The procedure: In vivo efficacy studies in mice were conducted at the Swiss Tropical and Public Health Institute (Basel) (License number 2813) according to the rules and regulations for the protection of animal rights (“Tierschutzverordnung”) of the Swiss “Bundesamt für Veterinärwesen”. They were approved by the veterinary office of Canton Basel-Stadt, Switzerland. Groups of four female NMRI mice weighing 20 to 25 g were infected i.p. on Day 0 (d0) with 10^5 bloodstream forms of T. brucei brucei STIB 795, which is a derivative of strain 427. Compounds were formulated in 100% DMSO diluted 10-fold in distilled water. Mice were treated on four consecutive days (d3 to d6 post-infection) with the Origanum onites oil, as well as carvacrol and thymol, at 100 mg/kg by the i.p. route. One group served as untreated controls, and two other groups were treated with the standard drugs pentamidine (5 mg/kg for 4 days) and melarsoprol (2 mg/kg for 4 days), respectively. The levels of parasitemia of the mice were checked by microscopic examination of tail blood on Day 7 and thereafter twice a week until Day 30 post infection. Mice were considered cured when there was no parasitaemia relapse detected in the tail blood over the 30 day observation period. The day of relapse and surviving days were recorded.

The test system of a further experiment is L. infantum. Also noted: method as in doi:10.1016/j.indcrop.2015.09.049. Particulars: cited from earlier work.
The test system of experiment [2] is chloroquine-resistant P. falciparum strain. Particulars: reported to be inactive; cited from earlier work.
Another experiment relates to Trypanosoma cruzi. On the set-up: method as in earlier work. The following applies: 200 mg/kg/day, intragastric route, 22nd day post-infection; cited from earlier work.
For a further experiment, the system named is T. cruzi trypomastigotes. On the set-up: method as in PMID 17024354. Particulars: 24 h incubation; cited from earlier work.
In another experiment the test system is P. falciparum. On the set-up: method as in PMID 22441836. The following applies: cited from earlier work.
The next experiment has as its system T. cruzi epimastigotes. Also noted: method as in PMID 17024354. Particulars: 24 h incubation; cited from earlier work.
The test system of experiment [3] is intracellular amastigotes of T.-cruzi-infected Vero cells. Also noted: method as in PMID 20428679. The following applies: cited from earlier work.

Converted amounts (≈) assume the structure as drawn. “Also recorded” adds a separate entry of the source.

In general, IC50 refers to the concentration at which inhibition is half-maximal.

In the case of `Cc1ccc(C(C)C)cc1O` [Carvacrol], in experiment [1], the concentration for half-maximal inhibition (IC50) was more than 90 µg/mL and the “inhibitory activity against T. cruzi (in words)” value is “inactive”. For the same compound, in the experiment with T. brucei brucei STIB795, the “in vivo trypanocidal activity in mice (in words)” value is “inactive”, the Cured/Infected is 0/4 and the “Mean Survival” value stood at 5.25 days. Besides, the “IC50 L. infantum” value with L. infantum was 7.35 µg/mL (≈ 48.9 µM). Further, in experiment [2], the IC50 is more than 1000 µM.

Turning to `Cc1ccc(C(C)C)c(O)c1` [Thymol], in [1], the half-maximal inhibitory concentration (IC50) is more than 90 µg/mL and the “inhibitory activity against T. cruzi (in words)” value is “inactive”. In the experiment with T. brucei brucei STIB795, the “in vivo trypanocidal activity in mice (in words)” value is given as “extended the survival time of infected mice; also recorded: had some effect”, the Cured/Infected is on record as 0/4 and the “Mean Survival” value came out at 9.0 days. Besides, the “Mean Survival” value in the experiment on T. brucei brucei STIB795 (listed as thymol) is 9 days. In the experiment on Trypanosoma cruzi, the “parasitemia in T. cruzi infected albino mice (in words)” value is “significant reduction in parasitemia”. Also, the “IC50 T. cruzi trypomastigotes” value in the experiment on T. cruzi trypomastigotes is 53 µg/mL (≈ 353 µM). For the same compound, in the experiment with P. falciparum, the “IC50 in vitro antimalarial activity” value was 4.5 µg/mL (≈ 30 µM). For the same compound, the “IC50 T. cruzi epimastigotes” value in the experiment with T. cruzi epimastigotes was 62 µg/mL (≈ 413 µM). In addition, the selective index entry in [3] (T.-cruzi-infected Vero cells) was “greater than 10”. Further, the “IC50 intracellular amastigotes of T.-cruzi-infected Vero cells” value in [3] was 3.2 µg/mL.

The values are drawn from publication PMC6930659, “Antiprotozoal Activity of Turkish Origanum onites Essential Oil and Its Components” (Molecules, 2019).
